Assay results as given in US20220135941A1, “COMPOSITIONS AND METHODS FOR LONG TERM CULTURE OF HEPATOCYTES” (Peking University, priority 2019, published 2022).

Key:
[1] = test system: primary human hepatocytes (PHHs)
Protocol: (§1) The present study was approved by the Research Ethics Committee of China-Japan Friendship Hospital (Ethical approval No: 2009-50). PHHs were obtained from human donors. Human hepatocytes were isolated from discarded human livers. A modified two-step collagenase perfusion procedure was used to isolate primary human hepatocytes from these tissues (OOtani, et al., Nat Med., 15:701-706 (2009)). Briefly, the liver tissue was perfused with PB (perfusion buffer: 0.15 M NaCl; 5 mM KCl; 25 mM NaHCO3; 5 mM Glucose; 20 mM Hepes) to remove remaining blood cells, followed by PBE (perfusion buffer plus 1 mM EDTA) perfusion. The tissue was then perfused with PBC (perfusion buffer plus 1 mg/mL collagenase type IV, 5 mM CaCl2, Gibco). All the buffers were prewarmed to 37° C. prior to the isolation process. The hepatocytes suspension was collected and washed with Williams' Medium E (Gibco), then filtered through a 40 μm Nylon cell strainer (Falcon). The isolated hepatocytes were then seeded on collagen type I-coated (Rat tail collagen type I, Gibco) plates at a density of 2.5×10^5/cm2.
(§2) Serum-free medium used for hepatocyte culture (Null): Williams' medium E containing B27 (50×, Gibco), Glutmax (Gibco) and Pen Strep (Gibco). DMSO vehicle control: Null supplemented with nearly 0.035% DMSO. […] 24 h-Cultured hepatocytes were cultured in commercial medium HCM (Lonza).
Total RNA was isolated using the RNeasy Micro Kit (QIAGEN). RNA was converted to cDNA using First-Strand Synthesis SuperMix for qRT-PCR (Invitrogen). PCR was carried out using Power SYBR® Green PCR Master Mix (Applied Biosystems) and performed on an MX3000P Sequence Detection System (Stratagene). The data were analyzed using the delta-delta Ct method.

HBV = HBV infection of 5C-PHHs; type: cell-based; conditions: for HBV products (HBsAg, HBeAg, HBV RNA, HBV DNA, cccDNA) in infected 5C-PHHs: drug treatment of HBV infected 5C-PHHs
[2] = test system: primary human hepatocytes (PHHs); assay: PHH culture: morphology and survival; type: cell-based
Protocol: as §1, §2

[3] = test system: primary human hepatocytes (PHHs); assay: RNA-Seq global gene expression profiling of cultured PHHs; type: cell-based; conditions: hierarchical clustering
Excerpt: Total RNA was isolated using the RNeasy Plus Mini Kit (QIAGEN). RNA sequencing libraries were constructed using the Illumina mRNA-Seq Prep Kit (Illumina). Fragmented and randomly primed 150 bp paired-end libraries were sequenced using Illumina HiSeq 4000. Software and algorithms used for transcriptome analysis are including Cutadapt 1.16 (http://cutadapt.readthedocs.io/en/stable/guide.html), Salmon 0.8.2 (https://combinelab. github.io/salmon/), and R 3.5.0 (https://www.r-project.org). The expression profiles of HepG2, F-PHHs-3 and F-PHHs-4 were downloaded as raw data. The expression profiles of PHH 0d, hiPSC-Hep rep1, hiPSC-Hep rep2, hiPSC-Hep rep3 and hiPSC-Hep rep4 (Gordillo, et al., Development, 142:2094-2108 (2015)) were downloaded as raw sequencing reads from GEO database (GSM2817112, GSM2753376, GSM2753377, GSM2753378, GSM2753379). To compare gene expression profile between paired-end and single end libraries, we used the read1 from our generated sequencing paired-end reads. The read1 and the downloaded single-end read were trimmed to the same 40 bp length by using Cut adapt. The expression values for each sample were quantified by Salmon. Unsupervised hierarchical clustering of RNA-Seq data was generated by hclust package in R.

HCV Jc1G = assay: HCV infection of 5C-PHHs; type: cell-based; conditions: Gluc reporter and intracellular HCV RNA
Protocol: The Huh7.5 cell line was kindly provided by Professor Charles Rice and was routinely maintained in Dulbecco modified medium supplemented with 10% fetal bovine serum (Biological industries), 25 mM HEPES (Gibco) and Non-Essential Amino Acid (Gibco). For generating the cell cultured HCV, the plasmid encoding HCV Jc1FLAG2 (p7-nsGluc2A) (Jc1G in the text) was first linearized by XbaI digestion, and used as template for in-vitro-transcription by using MEGAscript (Invitrogen). HCVcc was generated as described previously by electroporation of the in-vitro-transcribed Jc1G RNA into Huh7.5 cells. Virus containing supernatants were harvested each day after 3 days post electroporation' and up to 7 days post electroporation. Supernatants were combined and the virus was concentrated by centrifugation using Amicon® Ultra-15 (100K) Centrifugal Filter Devices (Millipore) at 5000 g for 30 min at 4° C. The buffer was exchanged into PBS by repeated centrifugation with Amicon® Ultra-15. […]
For quantification of intracellular HCV RNA, cells were lysed in Trizol reagent (Invitrogen). […] The relative RNA levels were calculated using the 2-ΔΔCt method. […]
For quantification of luciferase activity, supernatants from each well were taken and mixed with equal volume of 2×passive lysis buffer (Promega). Luciferase activity was measured with Renilla luciferase substrate (Promega) according to manufacturer's protocol.

[4] = test system: interferon-stimulated genes (ISGs); assay: ISG expression in long-term cultured 5C-PHHs; type: cell-based, human

C[C@H](NC(=O)Cc1cc(F)cc(F)c1)C(=O)N[C@H](C(=O)OC(C)(C)C)c1ccccc1 [DAPT]
expression of EMT marker genes (COL1A1; Thy1; VIM) ([1]; added to SB43 and FSK combination): further blocked | expression of mesenchymal marker gene COL1A1 ([1]; combined with SB43 and FSK, day 14, normalized to FSK+SB43): decreased

Nc1ccn([C@@H]2CS[C@H](CO)O2)c(=O)n1 [LAM, lamivudine]
HBV products (HBsAg, HBeAg, HBV RNA, HBV DNA, cccDNA) in infected 5C-PHHs (HBV): reduction of HBV products

NC(=O)c1ccc(-c2nc(-c3ccc4c(c3)OCO4)c(-c3ccccn3)[nH]2)cc1 [SB43, 4-[4-(1,3-benzodioxol-5-yl)-5-(2-pyridinyl)-1H-imidazol-2-yl]benzamide]
epithelial morphology with the expression of E-cadherin ([2]; SB43 treatment, after 2 weeks): maintained an epithelial morphology | expression of EMT-associated transcription factors SNAI2, TWIST1 ([1]; SB43 alone): failed to suppress | maintaining the functional state of PHHs ([1]; blocking TGF-β signaling with SB43 alone): limited effect

CCCC(=O)Nc1ncnc2c1ncn2[C@@H]1O[C@@H]2COP(=O)([O-])O[C@H]2[C@H]1OC(=O)CCC.[Na+] [db-cAMP, Dibutyryl-cAMP, sodium salt]
global gene expression of PHHs when FSK is substituted [3]: replaced FSK

Daclatasvir [DCV]
HCV viral replication in 5C-PHHs (HCV Jc1G): effectively blocked

Forskolin [FSK]
PHH survival ([2]; combined with SB43): sustained PHH survival | EMT marker gene expression α-smooth muscle actin (ASMA) ([1]; combined with SB43, qRT-PCR at day 14): down-regulated

entecavir [ETV]
HBV products (HBsAg, HBeAg, HBV RNA, HBV DNA, cccDNA) in infected 5C-PHHs (HBV): reduction of HBV products

interferon-α [IFN-α]
interferon-stimulated genes (ISGs) expression [4]: significantly upregulated | cccDNA (HBV; cryopreserved PHHs cultured in 5C): significant reduction | HBV products (HBsAg, HBeAg, HBV RNA, HBV DNA, cccDNA) in infected 5C-PHHs (HBV): reduction of HBV products
